Patent US4888355A, “Indanes and their use as antiarrhythmic agents” (priority 1986, dated 1989)

Experiments:
Acute toxicity = format: in vivo; settings: mice
Description: The LDO or the dose at which there was no mortality after 8 days was determined on mice and the DLO for the compounds of Example 1,3 and 4 was 100, 100 and 200 mg/kg, respectively.

Kappa opiate receptor = target: T1, Kappa opiate receptor (Cavia porcellus, UniProt P41144); assay: In vitro bonding of Kappa opiate receptor; format: binding; settings: guinea pig cerebellum membranes; 1 nM 3H ethylketocyclazocine; pH 7.7; 25° C., 40 minutes; read-out: CI50 (50% inhibiting concentration)
T1 construct: Membrane culots preserved at -30° C. for about 30 days and prepared from guinea pig cerebellum; from tissue; host or cells: guinea pig cerebellum membranes
Description: Membrane culots preserved at -30° C. for about 30 days and prepared from guinea pig cerebellum were suspended in buffered Tris pH of 7.7. 2 ml fractions were placed in hemolysis tubes and 1 nM of 9^3 H ethylketocyclazocine and 5×10^-6 M of test compound were added thereto (in triple). When the test product displaced more than 50% of the radioactivity tied specifically to the receptor, the test was repeated with a range of seven doses to determine the dose which inhibited by 50% the radioactivity tied specifically to the receptor which is deemed CI50. The non-specific bond was determined by the addition of the known product, U-50488 H [Lahti et al., Life Science, Vol. 31 (1982), p 2257], at 10^-5 M (in triple). The mixture was incubated at 25° C. for 40 minutes, placed in a bath at 0° C. for 5 minutes and vacuum filtered. The product was rinsed with buffered Tris at a pH of 7.7 and the radioactivity was counted in the presence of Trition scintillation. The results were expressed directly as the 50% inhibiting concentration (CI50) or the concentration of the test compound which reduced by 50% radioactivity specificity fixed to the standard receptor.

Diuretic activity = format: in vivo; settings: male Sprague-Dawley rats; 1 mg/kg; period t1h-t2h
Description: Male rats of the Sprague-Dawley strain weighing 180 to 200 g were fasted for 17 hours before the test but received as much water as they desired. Groups of 8 rats were used for the test doses with the rats receiving the test compound or only the vehicle. The remaining volume was measured hourly for 2 hours after administration of the compound. At the end of this period, the urine was collected and the activity of the compounds was expressed as the percentage of variation calculated as the urinary volume in the period t1h -t2h.

[1] = Antiarythmic activity, aconitine perfusion in anesthesized rats; format: in vivo; settings: male rats; 10 mg/kg intravenous, 5 minutes before aconitine perfusion 10 μg/mn; vs controls
Description: Tracheotomized male rats weighing 300 to 350 g were anesthesized intraperitonally with 1.20 g/kg of urethane and were subjected to artifical respiration of 40 to 50 insufflations of 3 ml/minute. Needles were implanted subcutaneously to register the electrocardiogram of the rats by the signal of DII derivative. The test compounds were administered intraveinously and 5 minutes later, the jugular veins of the rats were perfused with 10 μg/mn or 0.2 ml of an aconitine solution and the time of appearance of troubles in the cardiac rhythm was noted. The results were expressed as a percentage of the elongation of time of the appearance of the cardiac rhythm troubles as compared to the controls and as a function of the dose of the test compound.

[2] = In vivo analgesic activity, hot plate test; settings: Mus musculus, sc, 0.5 h; female mice, copper plate 56° C.; subcutaneous; 30 minutes after treatment; read-out: DA100 (dose which increased the reaction time 100%)
Description: In the hot plate test, female mice weighing 22 to 24 g were placed individually on a copper plate maintained at 56° C. and the reaction to the pain was manifested by licking of the paws by the animal. […] The mice were divided into homogenous group and the test compound was administered subcutaneously with one group receiving only the vehicle. The reaction time to pain was measured again 30 to 60 minutes after treatment and the dose which increased the reaction time 100% (DA100) 30 minutes after treatment as compared to the control animals was determined. The DA100 for the compound of Example 1 was 8 mg/kg.

T1 sequence (P41144 whole entry): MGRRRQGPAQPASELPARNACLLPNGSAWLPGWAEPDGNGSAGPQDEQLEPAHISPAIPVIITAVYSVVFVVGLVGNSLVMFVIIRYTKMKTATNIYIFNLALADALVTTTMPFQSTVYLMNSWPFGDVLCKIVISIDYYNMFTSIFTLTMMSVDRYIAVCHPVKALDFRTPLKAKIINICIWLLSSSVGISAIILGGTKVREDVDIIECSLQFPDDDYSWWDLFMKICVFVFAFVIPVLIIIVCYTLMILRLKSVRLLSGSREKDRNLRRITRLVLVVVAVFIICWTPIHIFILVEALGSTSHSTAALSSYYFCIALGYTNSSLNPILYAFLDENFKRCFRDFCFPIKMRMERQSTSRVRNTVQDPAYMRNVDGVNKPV

Compound: CN(C(=O)Cc1ccc2ccccc2c1)[C@@H]1c2ccccc2C[C@H]1N1CCCC1 (racemic) [Example 4, Trans (±) N-[2,3-dihydro-2-(1-pyrrolidinyl)-1H-inden-1-yl]-N-methyl-2-naphthalene-acetamide]
- LDO (dose at which there was no mortality after 8 days) (Acute toxicity): 200 mg/kg

Compound: CN(C(=O)Cc1cccc2ccccc12)[C@@H]1c2ccccc2C[C@H]1N1CCCC1 (racemic) [Example 3, trans (±) N-[2,3-dihydro-2-(1-pyrrolidinyl)-1H-inden-1-yl]-N-methyl-1-naphthalene-acetamide]
- LDO (dose at which there was no mortality after 8 days) (Acute toxicity): 100 mg/kg
- IC50 (Kappa opiate receptor): 4.9 nM
- % Variation (urinary volume) (Diuretic activity): +267%

Compound: CN(C(=O)Cc1cccc2sccc12)[C@@H]1c2ccccc2C[C@H]1N1CCCC1 (racemic) [Example 1, Trans (±) N-[2,3-dihydro-2-(pyrrolidin-1-yl)-1H-inden-1-yl]-N-methyl-4-benzo[b]thiophene-acetamide]
- LDO (dose at which there was no mortality after 8 days) (Acute toxicity): 100 mg/kg
- % elongation of time of the appearance of the cardiac rhythm troubles [1]: +65%
- IC50 (Kappa opiate receptor): 1.8 nM
- % Variation (urinary volume) (Diuretic activity): +131%
- ED (100% increase in reaction time) [2]: 8 mg/kg
